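Test compounds were applied to cells in 96-well plates for 48 hours at 5 doses. GI50: concentration for 50% inhibition of growth. TGI: total growth inhibition.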
Columns and labels:
Test in all cases: NCI tumour cell line growth inhibition, 48 h
[1] = system: HCT-116 colon
[2] = system: OVCAR-8 ovarian
[3] = system: SR leukemia
[4] = system: 786-0 renal
[5] = system: CAKI-1 renal
[6] = system: HOP-92 NSCLC
[7] = system: PC-3 prostate
[8] = system: T-47D breast
[9] = system: XF 498 CNS
[10] = system: DMS 114 small cell lung
[11] = system: M19-MEL melanoma
[12] = system: MDA-N
[13] = system: KM20L2 colon
[14] = system: LXFL 529 NSCLC

Row | SMILES | TGI [1] [µM] | TGI [2] [µM] | TGI [3] [µM] | TGI [4] [µM] | GI50 [5] [µM] | TGI [5] [µM] | GI50 [6] [µM] | TGI [6] [µM] | GI50 [7] [µM] | TGI [7] [µM] | GI50 [2] [µM] | GI50 [8] [µM] | TGI [8] [µM] | TGI [9] [µM] | TGI [10] [µM] | TGI [11] [µM] | TGI [12] [µM] | TGI [13] [µM] | TGI [14] [µM] | GI50 [3] [µM]
1 | COc1ccc(/C=C/[N+](=O)[O-])cc1 | > 100 | 5.9 | 5.48 | > 100 |  |  |  |  |  |  |  |  |  |  |  |  |  |  |  | 
2 | CCCCCCCCCCCCCCCCOCCCOP(=O)(O)C1CCCN(O)C1=O (centres undefined) |  | 27.8 |  |  | 2.09 | 6.18 | 6.08 | 40 | 0.468 | 13.6 | 3.29 | 6.15 | 27.5 |  |  |  |  |  |  | 
3 | Nc1nncs1 | > 5000 | > 5000 | > 5000 | > 5000 |  | > 4630 |  | 4660 |  | > 5000 |  |  | > 4800 | 3890 | > 5000 | > 4550 | > 5000 | > 4800 |  | 
4 | O=C(O)CNCc1c2ccccc2[n+]([O-])c2ccccc12 | > 100 | > 100 |  | > 100 |  | > 100 |  | 78.1 |  |  |  |  |  |  | > 100 | > 100 |  | > 100 | > 100 | 
5 | CSc1sc(=S)sc1SC | > 100 | > 100 |  |  |  | > 100 |  | > 100 |  |  |  |  |  | > 100 | > 100 | > 100 |  | > 100 |  | 
6 | COC1/C=C\OC2(C)Oc3c(C)c(O)c4c(O)c(c(CN(C)C)c(O)c4c3C2=O)NC(=O)/C(C)=C\C=C/C(C)C(O)C(C)C(O)C(C)C(OC(C)=O)C1C (centres undefined) | 37.9 | > 100 | 43.1 | > 100 |  | > 100 |  | > 100 |  | 72 |  |  | > 100 |  |  |  | > 100 |  |  | 
7 | C[C@H](CCC1=NCCN1)[C@H]1CC[C@H]2[C@@H]3CC[C@@H]4C[C@H](O)CC[C@]4(C)[C@H]3CC[C@]12C | > 36.9 | 37.2 | > 20 |  |  | 20.2 |  | 19.5 |  | 28.4 |  |  | > 51.8 |  |  |  | 29.5 |  |  | 
8 | COC(=O)c1nc2c3c(cccc3c1C(=O)OC)Nc1ccccc1-2 | > 100 |  | > 100 | > 100 |  | > 100 |  | 50.2 |  | 82.1 |  |  |  |  |  |  | > 100 |  |  | 
9 | NC(=O)c1cc(C2OC(CO)C(O)C2O)nn1-c1ccc([N+](=O)[O-])cc1 (centres undefined) | > 100 | > 100 |  |  |  | > 100 |  | > 100 |  |  |  |  |  | > 100 | > 100 |  |  | > 100 | > 100 | 
10 | O=C(O)C(Br)Cc1ccc2c(c1)OCO2 (centres undefined) | > 100 |  | > 100 |  |  | > 100 |  | > 100 |  |  |  |  |  | 89.3 | > 100 | > 100 |  | > 100 | > 100 | 
11 | C#C[C@@]1(O)[C@@H](CO)O[C@@H](n2cc(F)c3c(N)ncnc32)[C@@H]1O |  | 3.69 | > 100 |  |  |  |  |  | 0.293 | 3.24 | 0.256 | 0.214 | 0.77 |  |  |  |  |  |  | 0.185
12 | COc1cc2c3c(c4cc(OC)c(OC)cc4c2cc1OC)[C@H](O)[C@@H]1CCCN1C3 | 7.64 |  | 2.67 |  |  | 2.3 |  | 2.32 |  | 1.98 |  |  | 2.53 |  |  |  |  |  |  | 

Reference: PubChem BioAssay (NCI)
